Test [1] deals with Mammalian SM synthase. Particulars: Luberto and Hannun, 1998; cited from earlier work.
The target of test [2] is T1, human SMS1 (Homo sapiens, UniProt Q86VZ5).
T1 construct: members for which full-length cDNAs could be obtained were cloned into a yeast multicopy, GALL promotor plasmid; His tag (from vector pYES2.1/V5-His-TOPO) (C); made in house; host or cells: Saccharomyces cerevisiae strain IAY11 (unpurified post-nuclear lysate)
T1 sequence (Q86VZ5 1-413): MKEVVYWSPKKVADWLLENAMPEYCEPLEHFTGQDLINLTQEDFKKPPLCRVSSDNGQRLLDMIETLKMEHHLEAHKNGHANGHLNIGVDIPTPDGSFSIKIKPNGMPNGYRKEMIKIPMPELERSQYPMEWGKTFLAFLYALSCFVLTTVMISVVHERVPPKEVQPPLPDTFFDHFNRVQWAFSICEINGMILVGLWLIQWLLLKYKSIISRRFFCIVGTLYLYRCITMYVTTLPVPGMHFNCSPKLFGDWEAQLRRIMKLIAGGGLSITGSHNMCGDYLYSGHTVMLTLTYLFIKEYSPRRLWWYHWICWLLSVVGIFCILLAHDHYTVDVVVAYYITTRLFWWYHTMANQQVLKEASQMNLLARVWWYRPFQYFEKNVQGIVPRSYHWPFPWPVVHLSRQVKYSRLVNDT
Briefly: SM synthase assay on lysates of SMS1-expressing yeast cells. More on the design: extent of inhibition of SMS1-mediated SM synthesis: dose or concentration left out as unconfirmed. The class given is biochemical. The protocol: (§1) CSS-expressing yeast cells were lysed at 100 OD600/ml by bead bashing at 4° C. in RB1 buffer (120 mM K-glutamate, 15 mM KCl, 5 mM NaCl, 2 mM MnCl2, 2 mM MgCl2, 20 mM Hepes-KOH, pH 7.2) containing freshly added protease inhibitors (Holthuis et al., (1998).
(§2) Lysates were centrifuged at 700 g for 10 min at 4° C. and supernatants (0.25 ml per reaction) preincubated with NEM (1 mM) for 10 min at 37° C. The reaction was initiated by addition of 5 nmol of NBD-Cer in 0.1 ml RB1 buffer and incubation continued for 15 min. Lipids were extracted by addition of 1.7 ml chloroform:methanol (1:2.2), dried under N2 and subjected to butanol/water partitioning. Lipids recovered from the butanol phase were separated by one-dimensional TLC for 30 min in solvent I: chloroform/methanol/4.2 M NH4OH (9:7:3, v/v), followed by 30 min in solvent II: chloroform/methanol/acetic acid (45:30:7, v/v). Fluorescent images were recorded on a STORM 860 Imaging Analysis System (Molecular Dynamics, Sunnyvale, Calif.) and analysed with ImageQuant software.

In test [3] the target is T2, human SMS2 (Homo sapiens, UniProt Q8NHU3).
T2 construct: members for which full-length cDNAs could be obtained were cloned into a yeast multicopy, GALL promotor plasmid; His tag (from vector pYES2.1/V5-His-TOPO) (C); made in house; host or cells: Saccharomyces cerevisiae strain IAY11 (unpurified post-nuclear lysate)
T2 sequence (Q8NHU3 1-365): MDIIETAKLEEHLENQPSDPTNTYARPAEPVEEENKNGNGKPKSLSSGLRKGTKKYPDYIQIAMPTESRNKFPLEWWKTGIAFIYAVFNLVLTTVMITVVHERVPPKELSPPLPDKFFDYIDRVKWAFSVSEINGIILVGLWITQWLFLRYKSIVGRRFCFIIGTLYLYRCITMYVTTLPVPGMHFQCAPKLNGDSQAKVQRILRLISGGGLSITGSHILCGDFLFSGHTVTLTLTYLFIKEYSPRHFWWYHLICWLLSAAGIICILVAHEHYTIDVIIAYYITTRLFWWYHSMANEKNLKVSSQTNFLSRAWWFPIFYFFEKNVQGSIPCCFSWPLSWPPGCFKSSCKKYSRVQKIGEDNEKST
Briefly: SM synthase assay on lysates of SMS2-expressing yeast cells. The class given is biochemical. The protocol:
as §1, §2

For test [4], the system named is yeast-associated SMase. Briefly: NBD-SM incubated with yeast cell lysates, TLC of reaction products. It is filed as biochemical. Particulars: NEM 1 mM, NBD-SM 1.8 μM, 30 min at 37° C. The protocol:
(§3) FIG. 3. NEM inhibits yeast-associated SMase but not mammalian SM synthase. (A) TLC separation of reaction products generated when NBD-SM (1.8 μM) was incubated with lysates of exponentially grown yeast cells (20 OD600 cells) in the presence (+) or absence (−) of N-ethylmaleimide (NEM; 1 mM). Reactions were in 0.35 ml RB1 buffer containing 1 μg/ml of IPC synthase inhibitor (aureobasidin A) and incubated for 30 min at 37° C. (B) TLC separation of reaction products generated when NBD-ceramide (NBD-Cer; […]) was incubated with lysates of HeLa cells (1/1: 2×10^6 cells; 1/4: 0.5×10^6 cells) in the presence (+) or absence (−) of NEM (1 mM). Reactions were in 0.35 ml PNS buffer, and incubated for 30 min at 37° C. Lipid extraction and TLC analysis were as described in Materials and methods.

For test [5], the system named is mammalian SM synthase. Briefly: NBD-ceramide incubated with HeLa cell lysates, TLC of reaction products. The class given is biochemical, human. The conditions noted are these: NEM 1 mM, 30 min at 37° C. The protocol: as §3

The structures appear in SMILES notation.

Regarding `S=C([S-])OC1CC2CC1C1CCCC21.[K+]` (stereo not shown) [D609, O-tricyclo[5.2.1.0^2,6]dec-9-yl dithiocarbonate potassium salt], the “sensitivity of mammalian SM synthase” value in test [1] was “sensitive”. The “inhibition of SM synthesis (in words)” value in test [2] and in test [3] was “inhibited SM synthesis in a dose-dependent manner” throughout. The “extent of inhibition of SMS1-mediated SM synthesis” value in test [2] (D609) is on record as 50%. Moreover, the “sensitivity of SMS2 to the drug relative to SMS1” value in test [3] was “two-fold less sensitive”.

With `CCN1C(=O)C=CC1=O` [NEM, N-ethylmaleimide], in test [4], the “effect on yeast-associated SMases” value is reported as “potent inhibitor”. Besides, in test [5], the “effect on mammalian SM synthase” value is given as “does not affect”.

The record behind these values is patent US20060205031A1, “Newly identified cholinephosphotransferases and ethanolaminephosphotransferases” (1) Universiteit Utrecht Holding B.V., priority 2003, published 2006).
